Laboratory results taken from patent US20220324835A1 (Nurix Therapeutics, Inc., priority 2018, published 2022).

Key:
Cbl-b = Cbl-b (Homo sapiens, UniProt Q13191); assay: Cbl-b inhibition assay (Cbl-b activity assay, FRET, Biological Example 1; 100 mM NaCl, 60 nM Src kinase); assay type: biochemical; conditions: upper bound stated in text lists; read-out: IC50 values in the Cbl-b inhibition assay of Biological Example 1
In short: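 Binding-based Cbl-b activity assay. Src-phosphorylated, N-terminally biotin-Avi-tagged Cbl-b recruits labelled UbcH5B-Ub, and proximity to streptavidin-terbium yields FRET.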

T-cell [1] = assay: IL-2 secretion from T-cells co-stimulated with anti-CD3 and anti-CD28 antibody (Biological Example 2); assay type: cell-based, human; conditions: Homo sapiens, T-cell
In short: (§1)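 T-cells were stimulated with anti-CD3 antibody alone or with anti-CD28 antibody, in the presence or absence of Cbl-b inhibitor. IL-2 secretion or CD25 surface staining was measured, and values expressed as fold over the uninhibited baseline […].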

T-cell [2] = assay: CD25 cell surface staining on T-cells co-stimulated with anti-CD3 and anti-CD28 antibody (Biological Example 2); assay type: cell-based, human; conditions: Homo sapiens, T-cell
In short: as §1

[3] = fold change over baseline, 0.3 μM Cbl-b inhibitor, primary human total T-cells, read-out: IL-2 secretion Anti-CD3/Anti-CD28 stimulation
[4] = fold change over baseline, 1 μM Cbl-b inhibitor, primary human total T-cells, read-out: IL-2 secretion Anti-CD3/Anti-CD28 stimulation
[5] = fold change over baseline, 4 μM Cbl-b inhibitor, primary human total T-cells, read-out: IL-2 secretion Anti-CD3/Anti-CD28 stimulation
[6] = fold change over baseline, 0.3 μM Cbl-b inhibitor, primary human total T-cells, read-out: CD25 staining Anti-CD3/Anti-CD28 stimulation
[7] = fold change over baseline, 1 μM Cbl-b inhibitor, primary human total T-cells, read-out: CD25 staining Anti-CD3/Anti-CD28 stimulation
[8] = fold change over baseline, 4 μM Cbl-b inhibitor, primary human total T-cells, read-out: CD25 staining Anti-CD3/Anti-CD28 stimulation

Chain of Cbl-b (Q13191 36-427): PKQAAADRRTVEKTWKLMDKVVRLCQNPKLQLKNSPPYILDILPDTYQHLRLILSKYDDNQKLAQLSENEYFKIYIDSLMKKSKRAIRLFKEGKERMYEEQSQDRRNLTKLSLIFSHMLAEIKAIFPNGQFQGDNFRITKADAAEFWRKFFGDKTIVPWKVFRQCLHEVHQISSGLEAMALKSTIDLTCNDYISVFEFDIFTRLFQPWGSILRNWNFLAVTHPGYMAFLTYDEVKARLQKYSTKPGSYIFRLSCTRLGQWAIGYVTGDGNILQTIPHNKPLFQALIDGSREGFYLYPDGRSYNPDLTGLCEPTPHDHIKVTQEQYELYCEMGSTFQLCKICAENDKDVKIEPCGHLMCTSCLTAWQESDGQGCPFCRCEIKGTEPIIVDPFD

SMILES | IC50 (Cbl-b) [nM] | fold induction at 0.3 µM (T-cell [1]; 0.3 μM compound, primary human total T-cells, baseline = anti-CD3/anti-CD28 stimulated cells without inhibitor, read-out: IL-2 secretion, Anti-CD3/Anti-CD28 stimulation, fold change over baseline) | fold induction at 1 µM (T-cell [1]; 1 μM compound, primary human total T-cells, baseline = anti-CD3/anti-CD28 stimulated cells without inhibitor, read-out: IL-2 secretion, Anti-CD3/Anti-CD28 stimulation, fold change over baseline) | fold induction at 4 µM (T-cell [1]; 4 μM compound, primary human total T-cells, baseline = anti-CD3/anti-CD28 stimulated cells without inhibitor, read-out: IL-2 secretion, Anti-CD3/Anti-CD28 stimulation, fold change over baseline) | fold induction at 0.3 µM (T-cell [2]; 0.3 μM compound, primary human total T-cells, baseline = anti-CD3/anti-CD28 stimulated cells without inhibitor, read-out: CD25 staining, Anti-CD3/Anti-CD28 stimulation, fold change over baseline) | fold induction at 1 µM (T-cell [2]; 1 μM compound, primary human total T-cells, baseline = anti-CD3/anti-CD28 stimulated cells without inhibitor, read-out: CD25 staining, Anti-CD3/Anti-CD28 stimulation, fold change over baseline) | fold induction at 4 µM (T-cell [2]; 4 μM compound, primary human total T-cells, baseline = anti-CD3/anti-CD28 stimulated cells without inhibitor, read-out: CD25 staining, Anti-CD3/Anti-CD28 stimulation, fold change over baseline) | fold induction at 0.3 µM (T-cell [1]; [3]) | fold induction at 1 µM (T-cell [1]; [4]) | fold induction at 4 µM (T-cell [1]; [5]) | fold induction at 0.3 µM (T-cell [2]; [6]) | fold induction at 1 µM (T-cell [2]; [7]) | fold induction at 4 µM (T-cell [2]; [8]) | fold induction at 0.3 µM (T-cell [1]; 0.3 μM Cbl-b inhibitor, fold change over baseline (anti-CD3/anti-CD28 stimulated T-cells without inhibitor), read-out: IL-2 secretion Anti-CD3/Anti-CD28 stimulation) | fold induction at 1 µM (T-cell [1]; 1 μM Cbl-b inhibitor, fold change over baseline (anti-CD3/anti-CD28 stimulated T-cells without inhibitor), read-out: IL-2 secretion Anti-CD3/Anti-CD28 stimulation) | fold induction at 0.3 µM (T-cell [2]; 0.3 μM Cbl-b inhibitor, fold change over baseline (anti-CD3/anti-CD28 stimulated T-cells without inhibitor), read-out: CD25 staining Anti-CD3/Anti-CD28 stimulation) | fold induction at 1 µM (T-cell [2]; 1 μM Cbl-b inhibitor, fold change over baseline (anti-CD3/anti-CD28 stimulated T-cells without inhibitor), read-out: CD25 staining Anti-CD3/Anti-CD28 stimulation)
Cn1cnnc1CC1(c2cccc(N3Cc4c(cc(CN5CC[C@@H](C#N)C5)cc4C(F)(F)F)C3=O)c2)COC1 [Compound 421, (R)-1-((2-(3-(3-((4-methyl-4H-1,2,4-triazol-3-yl)methyl)oxetan-3-yl)phenyl)-3-oxo-7-(trifluoromethyl)isoindolin-5-yl)methyl)pyrrolidine-3-carbonitrile] | ≤ 100 | 5 to 7.5 | > 7.5 | > 7.5 | 1.01 to 1.3 | 1.01 to 1.3 | 1.31 to 1.5 | – | – | – | – | – | – | – | – | – | –
Cc1ccc(C(=O)Nc2cccc([C@H](C)Sc3nncn3C)c2)nc1C1CC1 [Compound 54, (S)-6-cyclopropyl-5-methyl-N-(3-(1-((4-methyl-4H-1,2,4-triazol-3-yl)thio)ethyl)phenyl)picolinamide] | ≤ 100 | – | – | – | – | – | – | 1.01 to 2.5 | 2.51 to 5 | > 7.5 | 1.01 to 1.3 | 1.01 to 1.3 | 1.01 to 1.3 | – | – | – | –
Cn1cnnc1CC1(c2cccc(N3Cc4c(cccc4C(F)(F)F)C3=O)c2)COC1 [Compound 301, 2-[3-[3-[(4-methyl-1,2,4-triazol-3-yl)methyl]oxetan-3-yl]phenyl]-4-(trifluoromethyl)isoindolin-1-one] | ≤ 100 | – | – | – | – | – | – | 1.01 to 2.5 | 2.51 to 5 | > 7.5 | 1.01 to 1.3 | 1.01 to 1.3 | 1.31 to 1.5 | – | – | – | –
Cc1cnnn1C[C@@H](C)c1cccc(NC(=O)c2cccc(C(F)(F)F)n2)c1 [Compound 312a, (S)-N-(3-(1-(5-methyl-1H-1,2,3-triazol-1-yl)propan-2-yl)phenyl)-6-(trifluoromethyl)picolinamide] | ≤ 300 | – | – | – | – | – | – | 1.01 to 2.5 | 1.01 to 2.5 | 2.51 to 5 | < 1 | 1.01 to 1.3 | 1.01 to 1.3 | – | – | – | –
CC(=O)N1CCN(c2ccc3cnc(C(=O)Nc4cccc([C@H](C)Cc5nncn5C)c4)cc3c2)CC1 [Compound 211, (R)-6-(4-acetylpiperazin-1-yl)-N-(3-(1-(4-methyl-4H-1,2,4-triazol-3-yl)propan-2-yl)phenyl)isoquinoline-3-carboxamide 2,2,2-trifluoroacetate] | ≤ 100 | – | – | – | – | – | – | 2.51 to 5 | 5 to 7.5 | > 7.5 | 1.01 to 1.3 | 1.01 to 1.3 | 1.51 to 1.75 | – | – | – | –
C[C@H](Sc1nncn1C)c1cccc(NC(=O)c2ccc(F)c(C3CC3)n2)c1 [Compound 91, 6-Cyclopropyl-5-fluoro-N-[3-[(1S)-1-[(4-methyl-1,2,4-triazol-3-yl)sulfanyl]ethyl]phenyl]pyridine-2-carboxamide] | ≤ 100 | – | – | – | – | – | – | 1.01 to 2.5 | 2.51 to 5 | > 7.5 | < 1 | < 1 | 1.01 to 1.3 | – | – | – | –
C[C@H](Sc1nncn1C)c1cccc(NC(=O)c2cccc(C3CC3)n2)c1 [Compound 72, (S)-6-cyclopropyl-N-(3-(1-((4-methyl-4H-1,2,4-triazol-3-yl)thio)ethyl)phenyl)picolinamide] | ≤ 100 | – | – | – | – | – | – | 1.01 to 2.5 | 2.51 to 5 | 2.51 to 5 | 1.31 to 1.5 | 1.51 to 1.75 | 1.51 to 1.75 | – | – | – | –
CC(C)Nc1cc([C@H](C)Cc2nncn2C)cc(N2Cc3c(cccc3C(F)(F)F)C2=O)n1 [Compound 353, 2-{4-[(2R)-1-(4-methyl-4H-1,2,4-triazol-3-yl)propan-2-yl]-6-[(propan-2-yl)amino]pyridin-2-yl}-4-(trifluoromethyl)-2,3-dihydro-1H-isoindol-1-one] | ≤ 100 | – | – | – | – | – | – | 1.01 to 2.5 | 2.51 to 5 | > 7.5 | 1.01 to 1.3 | 1.01 to 1.3 | 1.31 to 1.5 | – | – | – | –
CC1CCc2c1n[nH]c2C(=O)Nc1cccc([C@H](C)Cc2nncn2C)c1 (stereo partly drawn) [Compound 323, 6-Methyl-N-(3-((R)-1-(4-methyl-4H-1,2,4-triazol-3-yl)propan-2-yl)phenyl)-2,4,5,6-tetrahydrocyclopenta[c]pyrazole-3-carboxamide] | ≤ 300 | – | – | – | – | – | – | 1.01 to 2.5 | 2.51 to 5 | 5 to 7.5 | < 1 | < 1 | 1.01 to 1.3 | – | – | – | –
C[C@H](Cc1nncn1C)c1cccc(N2Cc3c(cc(C(=O)N4CC(O)C4)cc3C(F)(F)F)C2=O)c1 [Compound 276, (R)-6-(3-hydroxyazetidine-1-carbonyl)-2-(3-(1-(4-methyl-4H-1,2,4-triazol-3-yl)propan-2-yl)phenyl)-4-(trifluoromethyl)isoindolin-1-one] | ≤ 100 | – | – | – | – | – | – | 1.01 to 2.5 | 2.51 to 5 | > 7.5 | 1.01 to 1.3 | 1.01 to 1.3 | 1.31 to 1.5 | – | – | – | –
C[C@H](Cc1nncn1C)c1cccc(NC(=O)c2cc(C3CC3)nc(C3CC3)n2)c1 [Compound 193, (R)-2,6-dicyclopropyl-N-(3-(1-(4-methyl-4H-1,2,4-triazol-3-yl)propan-2-yl)phenyl)pyrimidine-4-carboxamide] | ≤ 100 | – | – | – | – | – | – | 2.51 to 5 | 5 to 7.5 | > 7.5 | 1.01 to 1.3 | 1.51 to 1.75 | 1.51 to 1.75 | – | – | – | –
C[C@H](Cc1nncn1C)c1cccc(NC(=O)c2cc(O[C@@H]3CC[C@@H](O)C3)ccn2)c1 (relative stereo) [Compound 205, trans-4-(3-hydroxycyclopentyloxy)-N-(3-((R)-1-(4-methyl-4H-1,2,4-triazol-3-yl)propan-2-yl)phenyl)picolinamide] | ≤ 100 | – | – | – | – | – | – | 2.51 to 5 | 2.51 to 5 | 5 to 7.5 | 1.01 to 1.3 | 1.01 to 1.3 | 1.31 to 1.5 | – | – | – | –
Cn1cnnc1CC1(c2cccc(N3Cc4c(cc(CN5CCC(C)(F)CC5)cc4C(F)(F)F)C3=O)c2)COC1 [Example 620, 6-((4-fluoro-4-methylpiperidin-1-yl)methyl)-2-(3-(3-((4-methyl-4H-1,2,4-triazol-3-yl)methyl)oxetan-3-yl)phenyl)-4-(trifluoromethyl)isoindolin-1-one] | ≤ 100 | – | – | – | – | – | – | – | – | – | – | – | – | > 7.5 | > 7.5 | 1.31 to 1.5 | 1.31 to 1.5
Cn1cnnc1CC(C)(C)c1cccc(N2Cc3c(cccc3C(F)(F)F)C2=O)c1 [Compound 300, 2-(3-(2-methyl-1-(4-methyl-4H-1,2,4-triazol-3-yl)propan-2-yl)phenyl)-4-(trifluoromethyl)isoindolin-1-one] | ≤ 100 | – | – | – | – | – | – | 1.01 to 2.5 | 2.51 to 5 | > 7.5 | 1.01 to 1.3 | 1.01 to 1.3 | 1.51 to 1.75 | – | – | – | –
CCNc1cc([C@H](C)Cc2nncn2C)cc(N2Cc3c(cccc3C(F)(F)F)C2=O)n1 [Compound 360, (R)-2-(6-(ethylamino)-4-(1-(4-methyl-4H-1,2,4-triazol-3-yl)propan-2-yl)pyridin-2-yl)-4-(trifluoromethyl)isoindolin-1-one] | ≤ 100 | – | – | – | – | – | – | 2.51 to 5 | > 7.5 | > 7.5 | 1.31 to 1.5 | 1.51 to 1.75 | 1.51 to 1.75 | – | – | – | –
